Results as given in patent publication US20250054573A1, “METHOD OF CHARACTERISING A DNA SAMPLE” (Cambridge Enterprise Limited, priority 2021, published 2025).

Test system: human cancer cell lines
Assay: Kendall's Tau correlation of CIN signature activities with drug response (AUC, PRISM drug repurposing screen) across cancer cell lines
Assay type: cell-based
Conditions: for tau (Kendall's Tau), CIN signature activity vs drug response: drug AUC, PRISM screen
Excerpt: Calculating signature activities for cell lines. […] Combined cell line log R and BAF data was split into sample-specific log R and BAF files. […] In this pipeline, while the rescued SNPs allow for the identification of additional segments from their Log R, by construction their average BAF is never equal to 0 or 1 even in the presence of LOH. This biases purity estimates towards lower values and renders the copy-number fitting inaccurate.
Where nT is the total number of copies in the tumour, ρ is the purity and ψ is the average tissue ploidy. Akin to ASCAT, we picked the purity and ploidy combination that minimized the distance between nr and integer values. […] As fitting of absolute copy number to non-matched cell line data is inherently more challenging than other instances, all cell lines where ASCAT identified a plausible solution were visually inspected to determine fit suitability and excluded cell lines where absolute copy number profiles were incorrect or poorly fitted. […] For identifying the signature activities, we used the linear combination decomposition function from YAPSA (R package, v1.12.0) and the 17 signatures of CIN.
CRISPR, RNAi and drug response data integration.
Correlation of signatures with target gene KO, KD and drug inhibition. Kendall's Tau correlation was performed between CIN signature activities and gene essentiality scores from the genetic perturbation screens. Correlations were filtered for tau<−0.07 and q-value<0.05 after multiple testing corrections using the Benjamini-Hochberg method. […] These targets were then used to test correlation of the signature activity with matched drug inhibition of the target measured via AUC.

## COc1cc2c(cc1O)CC[C@@H]1[C@@H]2CC[C@]2(C)[C@@H](O)CC[C@@H]12 [2-methoxyestradiol]
CIN sig. CX5, Target HIF1A
  tau (Kendall's Tau), CIN signature activity vs drug response: −0.1543

## Cc1ccc(NC(=O)c2cccc(C(C)(C)C#N)c2)cc1Nc1ccc2ncn(C)c(=O)c2c1 [AZ-628]
CIN sig. CX1, Target BRAF
  tau (Kendall's Tau), CIN signature activity vs drug response: −0.09859
CIN sig. CX14, Target BRAF
  tau (Kendall's Tau), CIN signature activity vs drug response: −0.1048
CIN sig. CX14, Target RAF1
  tau (Kendall's Tau), CIN signature activity vs drug response: −0.1048
CIN sig. CX15, Target BRAF
  tau (Kendall's Tau), CIN signature activity vs drug response: −0.1189

## Cn1cc(CNCC2CCN(c3ncc(C(=O)NO)cn3)CC2)c2ccccc21 [JNJ-26481585]
CIN sig. CX17, Target HDAC2
  tau (Kendall's Tau), CIN signature activity vs drug response: −0.1371
CIN sig. CX17, Target HDAC4
  tau (Kendall's Tau), CIN signature activity vs drug response: −0.1371

## OC(Cc1ccncc1)C(Cl)(Cl)Cl (stereo not shown) [PETCM]
CIN sig. CX9, Target CASP3
  tau (Kendall's Tau), CIN signature activity vs drug response: −0.1078

## O=C1NC(=O)c2c1c1c3ccccc3[nH]c1c1[nH]c3ccccc3c21 [arcyriaflavin-a]
CIN sig. CX4, Target CCND1, 297 cancer cell lines
  association of CX4 activity with drug response, in words: correlated with response to inhibition of CCND1
CIN sig. CX4, Target CCND1
  tau (Kendall's Tau), CIN signature activity vs drug response: −0.1159
CIN sig. CX13, Target CDK4
  tau (Kendall's Tau), CIN signature activity vs drug response: −0.07546

## C/C1=C/C[C@@H](/C(C)=C/c2csc(C)n2)OC(=O)C[C@H](O)C(C)(C)C(=O)[C@H](C)[C@@H](O)[C@@H](C)CCC1 [epothilone-d]
CIN sig. CX9, Target TUBB4B
  tau (Kendall's Tau), CIN signature activity vs drug response: −0.07597

## O=C(c1cc(Cc2n[nH]c(=O)c3ccccc23)ccc1F)N1CCN(C(=O)C2CC2)CC1 [olaparib]
CIN sig. CX5, Target PARP1, 297 cancer cell lines
  association of CX5 activity with drug response, in words: predicted response to olaparib
